Source: ChEMBL document CHEMBL5053510, “Discovery of AS-1763: A Potent, Selective, Noncovalent, and Orally Available Inhibitor of Bruton's Tyrosine Kinase” (J Med Chem, 2021)
Activity calls are given as the source filed them. No cut-off for these calls is given here.

Columns and labels:
[1] = Half life in mouse at 2 mg/kg, iv; assay type: ADME, organism-based; settings: in vivo
[2] = biological target: Tyrosine-protein kinase BTK (Homo sapiens, UniProt Q06187, C481S); experiment: Inhibition of BTK C481S mutant (unknown origin) in presence of 1 mM ATP by microplate reader assay
[3] = Plasma protein binding in mouse; assay type: ADME, cell-free; settings: read-out: PPB (converted)
[4] = AUC (0 to last) in mouse at 15 mg/kg, po; assay type: ADME, organism-based; design: time 0 - last, dose 15 mg/kg, route po; settings: in vivo
[5] = biological target: Tyrosine-protein kinase Tec (Homo sapiens, UniProt P42680); experiment: Inhibition of human TEC (359 - 631 residues) expressed in baculovirus expression system by mobility shift assay
[6] = MRT (0 to last) in mouse at 2 mg/kg, iv; assay type: ADME, organism-based; settings: in vivo
[7] = Clearence in rat at 2 mg/kg, iv; assay type: ADME, organism-based; settings: in vivo
[8] = biological target: T1, Proto-oncogene tyrosine-protein kinase Src (Homo sapiens, UniProt P12931); experiment: Inhibition of human full length SRC expressed in baculovirus expression system at 0.3 uM by mobility shift assay
[9] = MRT (0 to last) in rat at 15 mg/kg, po; assay type: ADME, organism-based; settings: in vivo
[10] = biological target: Tyrosine-protein kinase BTK (Mus musculus) (UniProt P35991); experiment: Inhibition of BTK in […] mouse blood assessed as reduction in BTK phosphorylation at Tyr223 residue at 30 mg/kg, po measured after 8 hrs; assay type: organism-based
[11] = Initial plasma concentration in dog at 5 mg/kg, po; assay type: ADME, organism-based, Canis lupus familiaris; settings: in vivo
[12] = Tmax in mouse at 15 mg/kg, po; assay type: ADME, organism-based; settings: in vivo
[13] = Tmax in dog at 5 mg/kg, po; assay type: ADME, organism-based, Canis lupus familiaris; settings: in vivo
Mus musculus = species: Mus musculus; experiment: Toxicity in SCID mouse harboring human OCILY10 cells harboring BTK C481S mutant […] gene assessed as body weight loss; assay type: organism-based
OCI-Ly10 [14] = experiment: Antiproliferative activity against human OCILY10 cells harboring BTK C481S mutant […] gene assessed as reduction in cell viability after 96 hrs; assay type: functional, cell-based; settings: OCI-Ly10, 96 h
[15] = biological target: T1, Proto-oncogene tyrosine-protein kinase Src; experiment: Inhibition of human full length SRC expressed in baculovirus expression system by mobility shift assay
[16] = Apparent permeability of the compound in human Caco-2 cells; assay type: ADME, cell-based
[17] = Volume of distribution at steady state in dog at 2 mg/kg, iv; assay type: ADME, organism-based, Canis lupus familiaris; settings: in vivo, read-out: Vdss
[18] = AUC (0 to last) in rat at 2 mg/kg, iv; assay type: ADME, organism-based; design: time 0 - last, dose 2 mg/kg, route iv; settings: in vivo
[19] = biological target: Muscle, skeletal receptor tyrosine-protein kinase (Homo sapiens) (UniProt O15146); experiment: Inhibition of human MUSK expressed in baculovirus expression system at 0.3 uM by mobility shift assay
[20] = MRT (0 to last) in mouse at 15 mg/kg, po; assay type: ADME, organism-based; settings: in vivo
[21] = Volume of distribution in steady state rat at 2 mg/kg, iv; assay type: ADME, organism-based; settings: in vivo, read-out: Vdss
[22] = Clearence in mouse at 2 mg/kg, iv; assay type: ADME, organism-based; settings: in vivo
[23] = Oral bioavailability in dog at 5 mg/kg; assay type: ADME, organism-based, Canis lupus familiaris; settings: in vivo
HEL 299 = experiment: Cytotoxicity against human HEL 299 cells assessed as cell growth inhibition measured after 96 hrs; assay type: cell-based; settings: HEL 299, 96 h
[24] = biological target: T2, Tyrosine-protein kinase BTK (Homo sapiens, UniProt Q06187); experiment: Inhibition of human full-length BTK (2 to 659 residues) expressed in baculovirus expression system at 0.3 uM by mobility shift assay
[25] = MRT (0 to last) in dog at 5 mg/kg, po; assay type: ADME, organism-based, Canis lupus familiaris; settings: in vivo
[26] = tested on: Tyrosine-protein kinase BTK (Homo sapiens), Q06187 [C481S]; experiment: Inhibition of human full-length BTK C481S mutant (2 to 659 residues) expressed in baculovirus expression system at 0.3 uM by mobility shift assay
[27] = MRT (0 to last) in rat at 2 mg/kg, iv; assay type: ADME, organism-based; settings: in vivo
[28] = biological target: Tyrosine-protein kinase ITK/TSK (Homo sapiens, UniProt Q08881); experiment: Inhibition of human ITK (2 - 620 residues) expressed in baculovirus expression system by mobility shift assay
[29] = Metabolic stability in rat hepatocytes assessed as Intrinsic clearance; assay type: ADME, cell-based, Hepatocyte
[30] = AUC (0 to last) in dog at 1 mg/kg, iv; assay type: ADME, organism-based, Canis lupus familiaris; design: time 0 - last, dose 1 mg/kg, route iv; settings: in vivo
[31] = tested on: Proto-oncogene tyrosine-protein kinase receptor Ret (Homo sapiens), P07949 [S891A]; experiment: Inhibition of human RET S891A mutant (658 - 1114) expressed in baculovirus expression system at 0.3 uM by mobility shift assay
[32] = Plasma protein binding in rat; assay type: ADME, cell-free; settings: read-out: PPB (converted)
[33] = MRT (0 to last) in dog at 1 mg/kg, iv; assay type: ADME, organism-based, Canis lupus familiaris; settings: in vivo
[34] = Initial plasma concentration in rat at 2 mg/kg, iv; assay type: ADME, organism-based
[35] = Oral bioavailability in mouse at 15 mg/kg; assay type: ADME, organism-based; settings: in vivo
OCI-Ly10 [36] = experiment: Antitumor activity against human OCILY10 cells xenografted in SCID mouse assessed as tumor growth inhibition at 6 mg/kg, po bid measured after 63 days; assay type: functional; settings: OCI-Ly10, 1512 h, time 63 day, read-out: TGI
Cytochrome P450 2D6 = Cytochrome P450 2D6 (Homo sapiens, UniProt P10635); experiment: Inhibition of […] (unknown origin); assay type: ADME
[37] = Tmax in rat at 15 mg/kg, po; assay type: ADME, organism-based; settings: in vivo
Cytochrome P450 2C8 = Cytochrome P450 2C8 (Homo sapiens, UniProt P10632); experiment: Inhibition of CYP2C8 (unknown origin); assay type: ADME
[38] = Initial plasma concentration in mouse at 2 mg/kg, iv; assay type: ADME, organism-based
[39] = biological target: T2, Tyrosine-protein kinase BTK; experiment: Inhibition of wild type BTK (unknown origin) in presence of 1 mM ATP by microplate reader assay
[40] = Metabolic stability in human hepatocytes assessed as Intrinsic clearance; assay type: ADME, cell-based, Hepatocyte
[41] = Oral bioavailability in rat at 15 mg/kg; assay type: ADME, organism-based; settings: in vivo
Cytochrome P450 3A4 = Cytochrome P450 3A4 (Homo sapiens, UniProt P08684); experiment: Inhibition of CYP3A4 (unknown origin); assay type: ADME
[42] = Half life in dog at 5 mg/kg, po; assay type: ADME, organism-based, Canis lupus familiaris; settings: in vivo
[43] = Metabolic stability in dog hepatocytes assessed as Intrinsic clearance; assay type: ADME, cell-based, Canis lupus familiaris, Hepatocyte
[44] = AUC (0 to last) in dog at 5 mg/kg, po; assay type: ADME, organism-based, Canis lupus familiaris; design: time 0 - last, dose 5 mg/kg, route po; settings: in vivo
[45] = biological target: Tyrosine-protein kinase BTK (Mus musculus) (UniProt P35991); experiment: In vivo inhibition of autophosphorylation of BTK at Y223 in mouse at 7.5 to 30 mg/kg, po measured up to 8 hrs by Western blot analysis; assay type: functional, organism-based; settings: dose 7.5-30 mg/kg
OCI-Ly10 [46] = experiment: Antitumor activity against human OCILY10 cells in SCID mouse assessed as tumor growth inhibition at 60 mg/kg, po bid measured after 63 days; assay type: functional; settings: OCI-Ly10, 1512 h, time 63 day, read-out: TGI
OCI-Ly10 [47] = experiment: Antitumor activity against human ibrutinib-resistant BTK[C481S] knock-in OCILY10 cells in SCID mouse assessed as tumor growth inhibition at 60 mg/kg, po bid measured after 63 days; assay type: functional; settings: OCI-Ly10, 1512 h, time 63 day, read-out: TGI
[48] = Clearence in dog at 1 mg/kg, iv; assay type: ADME, organism-based, Canis lupus familiaris; settings: in vivo
[49] = Volume of distribution at steady state in mouse at 2 mg/kg, iv; assay type: ADME, organism-based; settings: in vivo, read-out: Vdss

Chain of Tyrosine-protein kinase BTK (Mus musculus) (P35991 whole entry): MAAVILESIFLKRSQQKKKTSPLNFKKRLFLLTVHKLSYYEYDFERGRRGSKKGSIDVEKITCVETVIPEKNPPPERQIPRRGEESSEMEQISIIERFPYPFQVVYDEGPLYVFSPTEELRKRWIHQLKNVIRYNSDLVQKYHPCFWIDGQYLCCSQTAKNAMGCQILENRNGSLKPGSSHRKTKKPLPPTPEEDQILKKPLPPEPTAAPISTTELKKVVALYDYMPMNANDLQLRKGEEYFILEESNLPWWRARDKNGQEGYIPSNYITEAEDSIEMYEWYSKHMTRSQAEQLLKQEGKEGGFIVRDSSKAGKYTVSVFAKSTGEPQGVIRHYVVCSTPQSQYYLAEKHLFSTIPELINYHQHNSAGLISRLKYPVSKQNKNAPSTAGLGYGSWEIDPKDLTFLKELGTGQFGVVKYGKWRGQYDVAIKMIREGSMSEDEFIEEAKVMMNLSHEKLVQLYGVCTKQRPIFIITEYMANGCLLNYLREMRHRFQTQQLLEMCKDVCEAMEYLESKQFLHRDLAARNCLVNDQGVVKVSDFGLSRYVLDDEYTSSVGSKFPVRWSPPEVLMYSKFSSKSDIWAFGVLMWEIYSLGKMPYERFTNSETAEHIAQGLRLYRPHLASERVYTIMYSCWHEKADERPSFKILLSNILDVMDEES
T1 sequence (P12931 2-536 limits assumed): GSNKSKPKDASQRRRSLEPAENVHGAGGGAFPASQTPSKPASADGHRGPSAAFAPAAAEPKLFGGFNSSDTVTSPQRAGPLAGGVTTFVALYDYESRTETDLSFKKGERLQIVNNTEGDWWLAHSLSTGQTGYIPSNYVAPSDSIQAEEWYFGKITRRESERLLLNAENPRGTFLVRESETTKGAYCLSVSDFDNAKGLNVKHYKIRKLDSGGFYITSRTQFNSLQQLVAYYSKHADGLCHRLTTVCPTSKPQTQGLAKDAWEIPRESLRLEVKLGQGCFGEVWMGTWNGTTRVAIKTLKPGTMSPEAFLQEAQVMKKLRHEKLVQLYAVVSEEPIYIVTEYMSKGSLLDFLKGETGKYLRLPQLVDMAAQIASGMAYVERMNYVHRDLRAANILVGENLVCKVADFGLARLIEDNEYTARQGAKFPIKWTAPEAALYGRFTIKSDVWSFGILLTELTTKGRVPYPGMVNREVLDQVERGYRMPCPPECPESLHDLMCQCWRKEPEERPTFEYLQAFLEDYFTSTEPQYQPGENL
T2 sequence (Q06187 whole entry, the tested form may be a part): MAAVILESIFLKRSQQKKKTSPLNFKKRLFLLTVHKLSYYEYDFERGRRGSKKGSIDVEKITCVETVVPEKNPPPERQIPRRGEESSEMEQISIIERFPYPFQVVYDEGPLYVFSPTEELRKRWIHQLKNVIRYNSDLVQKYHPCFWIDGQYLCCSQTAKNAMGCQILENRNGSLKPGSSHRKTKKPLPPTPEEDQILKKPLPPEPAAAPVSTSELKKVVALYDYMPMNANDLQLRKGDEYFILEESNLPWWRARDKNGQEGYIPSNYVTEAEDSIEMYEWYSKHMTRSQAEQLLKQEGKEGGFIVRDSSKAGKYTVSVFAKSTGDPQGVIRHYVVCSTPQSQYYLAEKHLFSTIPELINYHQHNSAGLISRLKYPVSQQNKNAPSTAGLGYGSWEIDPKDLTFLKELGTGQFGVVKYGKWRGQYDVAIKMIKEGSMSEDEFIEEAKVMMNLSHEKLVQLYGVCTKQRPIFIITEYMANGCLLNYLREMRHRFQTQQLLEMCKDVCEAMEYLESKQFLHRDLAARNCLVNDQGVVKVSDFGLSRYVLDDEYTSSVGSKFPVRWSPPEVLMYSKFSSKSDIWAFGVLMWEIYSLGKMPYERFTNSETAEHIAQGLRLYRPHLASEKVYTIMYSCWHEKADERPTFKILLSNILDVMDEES
Chain of Cytochrome P450 3A4 (P08684 whole entry): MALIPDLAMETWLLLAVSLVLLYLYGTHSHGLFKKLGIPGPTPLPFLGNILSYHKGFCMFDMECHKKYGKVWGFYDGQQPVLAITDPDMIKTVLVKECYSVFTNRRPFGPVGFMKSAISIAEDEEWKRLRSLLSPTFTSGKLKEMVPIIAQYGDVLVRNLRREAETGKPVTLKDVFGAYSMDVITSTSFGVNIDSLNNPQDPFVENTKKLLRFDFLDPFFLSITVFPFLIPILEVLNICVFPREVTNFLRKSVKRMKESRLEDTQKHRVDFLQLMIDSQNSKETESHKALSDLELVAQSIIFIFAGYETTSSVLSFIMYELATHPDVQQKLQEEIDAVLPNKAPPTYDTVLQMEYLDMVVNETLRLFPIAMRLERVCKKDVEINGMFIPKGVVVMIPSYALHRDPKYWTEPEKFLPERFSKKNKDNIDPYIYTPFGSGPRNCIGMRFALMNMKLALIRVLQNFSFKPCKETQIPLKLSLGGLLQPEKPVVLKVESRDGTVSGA
Chain of Proto-oncogene tyrosine-protein kinase receptor Ret (Homo sapiens), P07949 [S891A] (P07949 whole entry S891A): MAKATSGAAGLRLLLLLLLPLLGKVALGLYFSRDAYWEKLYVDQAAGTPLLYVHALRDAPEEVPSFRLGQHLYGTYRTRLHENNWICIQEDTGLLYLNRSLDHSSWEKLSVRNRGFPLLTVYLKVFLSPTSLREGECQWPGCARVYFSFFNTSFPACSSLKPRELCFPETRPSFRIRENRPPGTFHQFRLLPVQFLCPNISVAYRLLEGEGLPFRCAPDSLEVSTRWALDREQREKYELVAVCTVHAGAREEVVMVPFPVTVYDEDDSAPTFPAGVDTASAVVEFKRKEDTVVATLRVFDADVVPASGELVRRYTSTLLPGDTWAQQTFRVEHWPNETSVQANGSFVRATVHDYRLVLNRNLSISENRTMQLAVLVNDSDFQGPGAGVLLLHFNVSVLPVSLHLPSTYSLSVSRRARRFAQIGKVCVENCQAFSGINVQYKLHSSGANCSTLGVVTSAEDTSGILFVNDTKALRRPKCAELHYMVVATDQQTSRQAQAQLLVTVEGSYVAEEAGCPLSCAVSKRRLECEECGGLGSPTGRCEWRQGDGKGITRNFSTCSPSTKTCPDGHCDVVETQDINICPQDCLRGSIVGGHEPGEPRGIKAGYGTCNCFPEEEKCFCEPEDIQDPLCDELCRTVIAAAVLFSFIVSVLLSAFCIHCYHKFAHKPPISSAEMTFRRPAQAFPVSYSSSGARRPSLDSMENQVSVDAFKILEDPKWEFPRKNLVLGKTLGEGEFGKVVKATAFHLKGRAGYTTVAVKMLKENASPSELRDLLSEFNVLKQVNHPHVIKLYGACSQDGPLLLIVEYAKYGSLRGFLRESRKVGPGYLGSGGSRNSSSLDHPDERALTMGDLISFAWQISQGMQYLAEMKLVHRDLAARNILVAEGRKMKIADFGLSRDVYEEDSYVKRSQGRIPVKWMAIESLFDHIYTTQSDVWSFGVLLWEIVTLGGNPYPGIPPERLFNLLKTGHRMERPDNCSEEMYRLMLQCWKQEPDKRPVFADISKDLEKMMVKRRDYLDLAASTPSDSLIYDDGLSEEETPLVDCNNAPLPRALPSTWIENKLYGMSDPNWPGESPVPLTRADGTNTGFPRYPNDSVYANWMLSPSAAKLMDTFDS
Chain of Muscle, skeletal receptor tyrosine-protein kinase (Homo sapiens) (O15146 whole entry): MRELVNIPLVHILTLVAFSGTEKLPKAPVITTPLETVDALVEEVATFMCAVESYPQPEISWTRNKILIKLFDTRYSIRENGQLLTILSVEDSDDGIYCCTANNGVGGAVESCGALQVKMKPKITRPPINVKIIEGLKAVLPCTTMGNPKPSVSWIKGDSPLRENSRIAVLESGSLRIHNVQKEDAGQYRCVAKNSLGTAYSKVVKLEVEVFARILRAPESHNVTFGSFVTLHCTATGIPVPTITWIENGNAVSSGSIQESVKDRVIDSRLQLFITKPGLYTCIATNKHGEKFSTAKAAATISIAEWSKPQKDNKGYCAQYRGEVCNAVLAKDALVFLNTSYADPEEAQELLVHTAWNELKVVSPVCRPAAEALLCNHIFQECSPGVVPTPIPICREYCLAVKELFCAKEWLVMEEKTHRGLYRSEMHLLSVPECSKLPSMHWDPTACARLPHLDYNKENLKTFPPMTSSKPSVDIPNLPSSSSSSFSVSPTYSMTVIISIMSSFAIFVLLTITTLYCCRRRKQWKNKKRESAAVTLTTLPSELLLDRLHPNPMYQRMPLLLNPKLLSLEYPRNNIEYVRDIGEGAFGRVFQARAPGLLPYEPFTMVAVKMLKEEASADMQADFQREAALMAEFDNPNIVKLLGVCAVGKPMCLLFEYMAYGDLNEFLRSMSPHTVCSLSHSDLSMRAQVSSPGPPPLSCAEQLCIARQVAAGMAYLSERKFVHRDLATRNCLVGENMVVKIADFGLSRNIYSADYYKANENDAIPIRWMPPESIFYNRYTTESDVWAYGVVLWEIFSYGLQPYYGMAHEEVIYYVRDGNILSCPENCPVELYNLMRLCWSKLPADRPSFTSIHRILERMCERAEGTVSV
Chain of Tyrosine-protein kinase Tec (P42680 whole entry, the tested form may be a part): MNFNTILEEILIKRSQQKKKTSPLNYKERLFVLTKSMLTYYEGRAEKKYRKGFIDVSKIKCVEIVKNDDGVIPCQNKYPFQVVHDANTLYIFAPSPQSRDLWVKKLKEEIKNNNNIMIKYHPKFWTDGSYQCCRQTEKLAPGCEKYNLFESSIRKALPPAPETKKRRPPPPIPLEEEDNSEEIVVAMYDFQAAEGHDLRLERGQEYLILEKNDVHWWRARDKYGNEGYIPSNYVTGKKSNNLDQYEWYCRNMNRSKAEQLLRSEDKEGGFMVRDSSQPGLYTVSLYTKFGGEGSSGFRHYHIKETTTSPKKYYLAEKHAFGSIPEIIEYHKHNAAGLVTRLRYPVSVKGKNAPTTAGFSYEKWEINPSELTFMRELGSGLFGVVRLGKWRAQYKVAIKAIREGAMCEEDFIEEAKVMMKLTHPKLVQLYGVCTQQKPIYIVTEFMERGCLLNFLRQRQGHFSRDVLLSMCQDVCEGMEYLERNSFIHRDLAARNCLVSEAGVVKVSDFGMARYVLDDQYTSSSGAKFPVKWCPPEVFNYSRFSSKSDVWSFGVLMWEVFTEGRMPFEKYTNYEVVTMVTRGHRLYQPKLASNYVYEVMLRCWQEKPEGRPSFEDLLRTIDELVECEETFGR
Chain of Tyrosine-protein kinase BTK (Homo sapiens), Q06187 [C481S] (Q06187 whole entry C481S, the tested form may be a part): as the sequence (Q06187 whole entry, the tested form may be a part) above, with C481S counted along it

SMILES: Nc1nc(-c2cccc(-n3ccc4cc(C5CC5)cc(F)c4c3=O)c2CO)c2cc(C3=CCN(C4COC4)CC3)[nH]c2n1 [MILREBRUTINIB]
- half-life [1]: 1.12 h
- IC50 [2]: 5.88 nM
- fraction unbound [3]: 0.008
- AUC(0-t) [4]: 8060 ng·h/mL
- IC50 [5]: 1.34 nM
- MRT last [6]: 1.36 h
- clearance [7]: 20.3 mL/min/kg
- inhibition [8]: 51.9%
- MRT last [9]: 4.03 h
- inhibition [10]: Active
- C0 [11]: 896 ng/mL
- Tmax [12]: 2 h
- Tmax [13]: 0.833 h
- Activity (Mus musculus): Non-Toxic
- IC50 (OCI-Ly10 [14]): 20.4 nM
- IC50 [15]: 291 nM
- Papp [16]: 1.42 ×10⁻⁶ cm/s
- Vd [17]: 1.77 L/kg
- AUC(0-t) [18]: 1650 ng·h/mL
- inhibition [19]: 53.2%
- MRT last [20]: 3.58 h
- Vd [21]: 3.64 L/kg
- clearance [22]: 18.8 mL/min/kg
- bioavailability [23]: 68.1%
- IC50 (HEL 299): 6370 nM
- inhibition [24]: 99.4%
- MRT last [25]: 2.3 h
- inhibition [26]: 99.8%
- MRT last [27]: 2.92 h
- IC50 [28]: 60.9 nM
- CLH [29]: 2.04 mL/min/g
- AUC(0-t) [30]: 734 ng·h/mL
- inhibition [31]: 67%
- fraction unbound [32]: 0.012
- MRT last [33]: 1.23 h
- C0 [34]: 874 ng/mL
- bioavailability [35]: 60.8%
- inhibition in vivo at 6 mg/kg (OCI-Ly10 [36]): 74.5%
- IC50 (Cytochrome P450 2D6): > 10000 nM
- Tmax [37]: 2 h
- IC50 (Cytochrome P450 2C8): 3170 nM
- C0 [38]: 972 ng/mL
- IC50 [39]: 3.72 nM
- CLH [40]: 0.76 mL/min/g
- bioavailability [41]: 15.9%
- IC50 (Cytochrome P450 3A4): > 10000 nM
- half-life [42]: 1.9 h
- CLH [43]: 1.28 mL/min/g
- AUC(0-t) [44]: 2490 ng·h/mL
- inhibition [45]: Active
- inhibition in vivo at 60 mg/kg (OCI-Ly10 [46]): 112%
- inhibition in vivo at 60 mg/kg (OCI-Ly10 [47]): 73%
- clearance [48]: 22.7 mL/min/kg
- Vd [49]: 1.61 L/kg
